The numbers were not newly measured in US10898467B2, “Veterinary formulations” (BOEHRINGER INGELHEIM ANIMAL HEALTH USA INC., priority 2015, dated 2021), which cites them from elsewhere.

The conditions of this series: beagle dogs, spot-on, 14C radiolabeled drug.

The structures appear in SMILES notation.

`N#Cc1nn(-c2c(Cl)cc(C(F)(F)F)cc2Cl)c(N)c1[S+]([O-])C(F)(F)F` (stereo not shown) [fipronil, 1-(2,6-Cl2-4-CF3phenyl)-3-CN-4-(SO—CF3)-5-NH2pyrazole]: the “Time for which fipronil was persistently detected in the whole skin after treatment” value is listed as “up to 56 days”.
